# Legend:
# Assay in all cases: relative viability (nuclei count vs DMSO), 5 days (fraction); higher = more cells survive
# RU-SKI 43 + Navitoclax = compound: CC[C@@H](C)CNCC(=O)N1CCC2=C([C@@H]1COC3=CC=CC(=C3)C)C=CS2 [RU-SKI 43] + CC1(C)CCC(c2ccc(Cl)cc2)=C(CN2CCN(c3ccc(C(=O)NS(=O)(=O)c4ccc(N[C@H](CCN5CCOCC5)CSc5ccccc5)c(S(=O)(=O)C(F)(F)F)c4)cc3)CC2)C1 [Navitoclax] (partner 0.5 µM)
# Procedure, shortened: (§1)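 Relative viability is defined as nuclei in treated wells over nuclei in vehicle wells. Duplicate plates were run and medians reported. Lung cancer cell lines in 1536-well plates were dosed by pin tool one day after seeding, with one drug or with a fixed anchor-drug dose plus five library-drug doses (not always all listed) in √10 steps, and nuclei were counted after 5 days.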
# Irinotecan + OSI-027 = compound: CCc1c2c(nc3ccc(OC(=O)N4CCC(N5CCCCC5)CC4)cc13)-c1cc3c(c(=O)n1C2)COC(=O)[C@]3(O)CC [Irinotecan] + COc1cccc2cc(-c3nc([C@H]4CC[C@H](C(=O)O)CC4)n4ncnc(N)c34)[nH]c12 [OSI-027] (partner 0.5 µM)
# Procedure, shortened: as §1
# MK-8033 + Trametinib = compound: Cn1cc(-c2cnc3ccc4ccc(CS(=O)(=O)NCc5ccccn5)cc4c(=O)c3c2)cn1 [MK-8033] + CC(=O)Nc1cccc(-n2c(=O)n(C3CC3)c(=O)c3c(Nc4ccc(I)cc4F)n(C)c(=O)c(C)c32)c1 [Trametinib] (partner 0.02 µM)
# Procedure, shortened: as §1
# MK-8033 + Linsitinib = compound: Cn1cc(-c2cnc3ccc4ccc(CS(=O)(=O)NCc5ccccn5)cc4c(=O)c3c2)cn1 [MK-8033] + C[C@]1(O)C[C@@H](c2nc(-c3ccc4ccc(-c5ccccc5)nc4c3)c3c(N)nccn32)C1 [Linsitinib] (partner 1 µM)
# Procedure, shortened: as §1
Cell Line,relative viability (RU-SKI 43 + Navitoclax; first compound 0.1 µM),relative viability (RU-SKI 43 + Navitoclax; first compound 0.3162 µM),relative viability (RU-SKI 43 + Navitoclax; first compound 1 µM),relative viability (RU-SKI 43 + Navitoclax; first compound 3.162 µM),relative viability (RU-SKI 43 + Navitoclax; first compound 10 µM),relative viability (Irinotecan + OSI-027; first compound 0.6325 µM),relative viability (Irinotecan + OSI-027; first compound 2 µM),relative viability (Irinotecan + OSI-027; first compound 6.325 µM),relative viability (Irinotecan + OSI-027; first compound 20 µM),relative viability (MK-8033 + Trametinib; first compound 0.02 µM),relative viability (MK-8033 + Trametinib; first compound 0.06325 µM),relative viability (MK-8033 + Trametinib; first compound 0.2 µM),relative viability (MK-8033 + Trametinib; first compound 0.6325 µM),relative viability (MK-8033 + Trametinib; first compound 2 µM),relative viability (MK-8033 + Linsitinib; first compound 0.02 µM),relative viability (MK-8033 + Linsitinib; first compound 0.06325 µM),relative viability (MK-8033 + Linsitinib; first compound 0.2 µM),relative viability (MK-8033 + Linsitinib; first compound 0.6325 µM),relative viability (MK-8033 + Linsitinib; first compound 2 µM)
201T,1.2,1.18,1.21,1.19,1.18,0.723,0.643,0.344,0.153,0.778,0.76,0.709,0.782,0.73,1.13,0.916,0.979,1,1.02
NCI-H1915,0.776,0.83,0.8,0.821,0.78,0.303,0.295,0.216,0.346,0.276,0.319,0.274,0.289,0.306,1.12,1.07,1.09,1.08,1.15
NCI-H2347,0.718,0.836,0.904,0.424,0.7,0.27,0.375,0.337,0.386,0.326,0.344,0.295,0.287,0.281,0.884,0.855,0.958,0.977,0.895
H3255,0.489,0.396,0.598,0.5,0.237,0.502,0.445,0.373,0.367,0.598,,0.562,0.656,0.532,1.03,0.815,0.903,0.991,0.826
NCI-H2009,1.11,1.21,1.17,1.15,1.1,0.491,0.508,0.314,0.124,0.282,0.255,0.215,0.291,0.238,1.21,1.12,1.07,1.21,1.11
NCI-H460,1.15,1.23,1.34,1.44,1.11,0.347,0.494,0.12,0.043,0.116,0.0888,0.0918,0.155,0.0855,0.903,0.702,0.686,0.85,0.684
COR-L 105,0.909,0.61,0.648,0.858,0.595,0.773,0.859,0.565,0.166,0.514,0.392,0.427,0.434,0.356,0.868,1.04,0.838,0.902,0.915
BEN,0.0754,0.0554,0.064,0.0685,0.0709,0.296,0.271,0.31,0.255,1.07,0.943,0.964,1.03,0.991,0.906,0.859,0.765,0.844,0.853
NCI-H1993,0.932,0.91,0.982,1.05,1.02,0.584,0.491,0.574,0.587,0.55,0.506,0.427,0.469,0.456,0.773,0.766,0.73,0.751,0.687
NCI-H838,1.17,1.31,1.27,1.22,1.1,0.508,0.37,0.368,0.257,0.488,0.506,0.534,0.525,0.51,0.988,0.98,0.985,0.98,0.953
NCI-H1755,1.04,1.14,1.06,1.06,1.05,0.378,0.652,0.381,0.42,0.804,0.767,0.74,0.702,0.732,0.996,0.993,0.954,0.988,0.946
NCI-H1666,0.9,1.08,0.888,0.852,0.848,0.792,0.809,0.544,0.26,0.846,0.777,0.862,0.787,0.855,0.872,0.754,0.83,0.66,0.81
NCI-H2085,1.17,1.11,1.2,1.08,1.12,0.435,0.71,0.568,0.495,0.542,0.546,0.525,0.554,0.574,0.831,0.797,0.837,0.943,0.825
COR-L23,0.971,0.628,1.11,1.04,1.07,0.578,0.556,0.179,0.145,0.607,0.576,0.602,0.572,0.523,0.88,0.849,0.824,0.993,0.902
NCI-H647,1.12,1.29,1.26,1.23,1.15,0.564,0.634,0.277,0.183,0.449,0.469,0.412,0.456,0.415,1.17,0.88,0.994,1.14,1.04
NCI-H1793,0.458,0.417,0.425,0.511,0.318,,0.251,0.255,0.198,0.425,,0.362,0.447,0.361,0.915,,0.775,0.858,0.782
LCLC-97TM1,0.197,,0.336,0.399,0.396,0.224,0.207,0.108,0.133,0.181,0.19,,0.207,0.209,0.173,0.149,0.202,0.181,0.207

Cell Line,relative viability (RU-SKI 43 + Navitoclax; first compound 0.1 µM),relative viability (RU-SKI 43 + Navitoclax; first compound 0.3162 µM),relative viability (RU-SKI 43 + Navitoclax; first compound 1 µM),relative viability (RU-SKI 43 + Navitoclax; first compound 3.162 µM),relative viability (RU-SKI 43 + Navitoclax; first compound 10 µM),relative viability (Irinotecan + OSI-027; first compound 0.6325 µM),relative viability (Irinotecan + OSI-027; first compound 2 µM),relative viability (Irinotecan + OSI-027; first compound 6.325 µM),relative viability (Irinotecan + OSI-027; first compound 20 µM),relative viability (MK-8033 + Trametinib; first compound 0.02 µM),relative viability (MK-8033 + Trametinib; first compound 0.06325 µM),relative viability (MK-8033 + Trametinib; first compound 0.2 µM),relative viability (MK-8033 + Trametinib; first compound 0.6325 µM),relative viability (MK-8033 + Trametinib; first compound 2 µM),relative viability (MK-8033 + Linsitinib; first compound 0.02 µM),relative viability (MK-8033 + Linsitinib; first compound 0.06325 µM),relative viability (MK-8033 + Linsitinib; first compound 0.2 µM),relative viability (MK-8033 + Linsitinib; first compound 0.6325 µM),relative viability (MK-8033 + Linsitinib; first compound 2 µM)
HOP-62,1.22,1.26,1.21,1.14,1.06,0.48,0.768,0.224,0.22,0.315,0.381,0.344,0.371,0.35,0.62,0.99,0.898,0.895,1.01
NCI-H520,1.08,1.42,1.28,1.08,1.03,0.292,0.316,0.218,0.192,0.615,0.565,0.56,0.795,0.629,0.994,0.876,0.844,0.925,0.991
NCI-H1734,0.867,1.49,0.911,0.899,0.803,,0.509,0.225,0.165,0.655,0.594,0.712,0.636,0.687,0.904,0.769,0.852,0.93,0.858
NCI-H1975,1.06,1.45,1.07,1.07,1.07,0.558,0.694,0.439,0.137,0.357,0.301,0.279,0.239,0.405,0.925,0.957,0.873,0.956,0.905
NCI-H1437,1.08,1.33,1.13,1.09,0.998,0.797,0.722,0.378,0.184,0.483,0.583,0.46,0.607,0.449,0.976,1.01,0.94,1.01,0.917
A-427,0.944,0.868,0.997,,0.961,,0.315,0.244,0.227,0.775,0.719,0.696,0.752,0.781,1.09,1.21,1.02,1.17,1.1
NCI-H2405,0.797,0.867,0.627,0.74,0.711,,0.596,0.382,0.289,0.601,0.619,0.496,0.603,0.667,0.882,0.91,0.783,0.831,0.957
SK-MES-1,1.31,1.55,1.33,1.25,1.12,0.428,0.538,0.434,0.15,0.44,0.478,0.539,0.583,0.534,1.06,0.995,1.04,1.09,1.09
LC-2-ad,0.388,0.487,0.63,0.422,0.329,0.384,0.606,0.372,0.148,0.895,0.888,0.885,0.916,0.898,0.82,0.75,0.796,0.822,0.795
NCI-H1944,1.02,1.05,1.12,1.02,0.938,0.22,0.349,0.165,0.161,0.407,0.418,0.395,0.391,0.398,1.2,,1.12,1.23,1.37
NCI-H322M,1.15,1.4,1.23,1.39,1.15,0.414,0.479,0.521,0.216,0.527,0.565,0.488,0.585,0.476,0.964,0.809,0.869,0.996,0.692
HCC-44,0.863,1.13,0.968,0.986,0.902,,0.721,0.289,0.213,1.01,1.04,1.04,1.02,1.04,0.615,0.661,0.617,0.654,0.688
HCC-827,0.998,0.954,1.03,1.08,0.973,0.639,0.64,0.224,0.216,0.578,,0.534,0.547,0.605,0.957,,0.947,0.968,0.948
SW 1573,0.993,0.93,0.898,1.03,0.721,0.213,0.566,0.231,0.122,0.471,0.504,0.573,0.582,0.568,0.799,0.721,0.764,0.749,0.684
NCI-H23,0.615,0.9,0.99,0.998,0.687,0.327,0.603,0.176,0.288,0.331,0.349,0.331,,0.381,0.508,0.576,0.407,0.599,0.508
EMC-BAC-2,1.14,1.57,1.21,1.26,1.15,0.316,0.331,0.274,0.287,0.804,0.776,0.826,0.928,0.902,0.774,0.771,0.744,0.893,0.791

# Reference: the supplement of paper PMC10307832
